Data as given in paper PMC3726001 (Bioorganic & medicinal chemistry letters, 2010).
Converted amounts (≈) assume the structure as drawn.

Tests used:
[1] = biological target: [3H]DTBZ-binding site on VMAT2 (Rattus norvegicus, UniProt Q01827); assay: [3H]DTBZ binding to VMAT2
VMAT2 = VMAT2 (Rattus norvegicus, UniProt Q01827); assay: Inhibition of [3H]DA uptake into synaptic vesicles; assay type: biochemical
Aqueous solubility = assay type: physicochemical
guinea pigs = conditions: cited from earlier work
dogs = conditions: cited from earlier work
[2] = tested on: (+)-methamphetamine (METH) self-administration; conditions: rats; effect not surmounted by METH; cited from earlier work
[3] = tested on: (+)-METH-induced dopaminergic toxicity; conditions: rats; repeated administration prior to (+)-METH self-administration; cited from earlier work

Sequence of [3H]DTBZ-binding site on VMAT2 (Q01827 whole entry): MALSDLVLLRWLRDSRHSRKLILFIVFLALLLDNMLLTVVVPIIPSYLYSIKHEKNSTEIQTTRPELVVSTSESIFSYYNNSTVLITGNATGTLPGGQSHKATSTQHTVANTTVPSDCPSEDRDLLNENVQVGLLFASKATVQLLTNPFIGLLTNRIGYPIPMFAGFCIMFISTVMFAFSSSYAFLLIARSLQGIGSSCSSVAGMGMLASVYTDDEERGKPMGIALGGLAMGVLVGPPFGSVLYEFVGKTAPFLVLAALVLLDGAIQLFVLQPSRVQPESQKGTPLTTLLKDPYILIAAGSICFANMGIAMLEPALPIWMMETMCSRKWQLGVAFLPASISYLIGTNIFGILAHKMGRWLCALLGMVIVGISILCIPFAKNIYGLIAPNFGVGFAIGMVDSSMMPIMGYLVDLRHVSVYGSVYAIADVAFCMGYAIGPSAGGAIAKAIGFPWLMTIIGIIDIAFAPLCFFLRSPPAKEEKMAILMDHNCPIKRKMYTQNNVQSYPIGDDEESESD
Sequence of VMAT2 (Q01827 whole entry): as above

Compound: CN1[C@@H](CCc2ccnc3ccccc23)CCC[C@H]1CCc1ccnc2ccccc12.Cl [compound 23]
- binding to the [3H]DTBZ binding site compared to lobelane ([1]; compared to lobelane): almost as avidly as lobelane
- potency in inhibiting [3H]DA uptake compared to lobelane (VMAT2): equipotent with lobelane
- water solubility characteristics compared to lobelane (Aqueous solubility): improved water solubility

Compound: CN1[C@@H](CCc2ccc3ccccc3n2)CCC[C@H]1CCc1ccc2ccccc2n1.Cl [compound 22]
- affinity for the [3H]DTBZ binding site [1]: submicromolar affinity
- binding to the [3H]DTBZ binding site compared to lobelane ([1]; compared to lobelane): almost as avidly as lobelane
- potency in inhibiting [3H]DA uptake compared to lobelane (VMAT2): equipotent with lobelane
- water solubility characteristics compared to lobelane (Aqueous solubility): improved water solubility

Compound: CN1[C@@H](CCc2c[nH]c3ccccc23)CCC[C@H]1CCc1c[nH]c2ccccc12 [compound 24]
- affinity for the [3H]DTBZ binding site [1]: greatly diminished affinity

Compound: CN1[C@@H](CCc2ccncc2)CCC[C@H]1CCc1ccncc1 [compound 21]
- binding to the [3H]DTBZ binding site compared to lobelane ([1]; compared to lobelane): marginally lower in binding affinity

Compound: CN1[C@@H](CCc2ccccc2)CCC[C@H]1CCc1ccccc1 [compound 1, N-methyl-cis-2,6-diphenethylpiperidine]
- solubility (Aqueous solubility): 300 µg/mL (≈ 976 µM)
- pharmacological action in guinea pigs (guinea pigs): peripheral spasmolytic, ‘central stimulating’ action
- respiratory analeptic activity (dogs): marked respiratory analeptic activity

Compound: CN1[C@@H](CC(=O)c2ccccc2)CCC[C@H]1C[C@H](O)c1ccccc1 [compound 2, lobeline]
- effect on (+)-METH self-administration [2]: inhibits
- effect on (+)-METH-induced dopaminergic toxicity [3]: prevents

Compound: CN1[C@@H](CCc2cccnc2)CCC[C@H]1CCc1cccnc1 [compound 14]
- fold less potent than lobelane in binding to the [3H]DTBZ binding site ([1]; compared to lobelane): about 30 fold
